Read-outs that look alike come from different tables or passages of the source.
Experiments:
P-P70S6K (T389) = assay: Cell based AlphaLISA assay, inhibition of P-P70S6K (T389) (mTORC1 substrate phosphorylation) in MDA-MB-468 cells; settings: Homo sapiens, 4 h, AlphaLISA, two to four hours at 37° C., read-out: pIC50 for Inhibition of mTORC1 and mTORC2 Substrate Phosphorylation, P-P70S6K-(T389) (converted)
Procedure: (§1) Cell Based AlphaLISA Assays for Determining IC50 for Inhibition of P-Akt (S473), P-4E-BP1 (T37/46), and P-P70S6K (T389) in MDA-MB-468 Cells
(§2) mTOR Kinase Cellular Assay
(§3) To measure functional activity of mTORC1 and mTORC2 in cells the phosphorylation of 4EBP1 (Thr37/46) and P70S6K (Thr389), and AKT1/2/3 (Ser473) was monitored using AlphaLisa SureFire Ultra Kits (Perkin Elmer). […] Incubations were terminated by removal of the assay buffer and addition of lysis buffer provided with the assay kit. Samples were processed according to the manufacturer's instructions. The Alpha signal from the respective phosphoproteins was measured in duplicate using a microplate reader (Envision, Perkin-Elmer or Spectramax M5, Molecular Devices). Inhibitor concentration response curves were analyzed using normalized IC50 regression curve fitting with control based normalization.

P-4E-BP1 (T37/46) = assay: Cell based AlphaLISA assay, inhibition of P-4E-BP1 (T37/46) (mTORC1 substrate phosphorylation) in MDA-MB-468 cells; settings: Homo sapiens, AlphaLISA, two to four hours at 37° C., read-out: pIC50 for Inhibition of mTORC1 and mTORC2 Substrate Phosphorylation, P-4E-BP1-(T37/46) (converted)
Procedure: as §1, §2, §3

P-Akt (S473) = assay: Cell based AlphaLISA assay, inhibition of P-Akt (S473) (mTORC2 substrate phosphorylation) in MDA-MB-468 cells; settings: Homo sapiens, AlphaLISA, two to four hours at 37° C., read-out: pIC50 for Inhibition of mTORC1 and mTORC2 Substrate Phosphorylation, p-AKT 1/2/3 -(S473) (converted)
Procedure: as §1, §2, §3

Row | Compound | IC50 (P-P70S6K (T389)) [nM] | IC50 (P-4E-BP1 (T37/46); MDA-MB-468, 4 h) [nM] | IC50 (P-Akt (S473); MDA-MB-468, 4 h) [nM] | IC50 (P-4E-BP1 (T37/46); 4 h) [nM] | IC50 (P-Akt (S473); 4 h) [nM]
1 | CO[C@H]1C[C@@H]2CC[C@@H](C)[C@@](O)(O2)C(=O)C(=O)N2CCCC[C@H]2C(=O)O[C@H]([C@H](C)C[C@@H]2CC[C@H](n3cc(-c4cccc(C(=O)NCCOCCOCCOCCOCCC(=O)NCCOCCOCCOCCOCCC(=O)NCCCCn5nc(-c6ccc7oc(N)nc7c6)c6c(N)ncnc65)c4)nn3)[C@H](OC)C2)CC(=O)[C@H](C)/C=C(\C)[C@@H](O)[C@@H](OC)C(=O)[C@H](C)C[C@H](C)/C=C/C=C/C=C/1C [Example 141] | 1 to 10 | 3.16 to 31.6 | 3.16 to 31.6 | – | –
2 | CO[C@H]1C[C@@H]2CC[C@@H](C)[C@@](O)(O2)C(=O)C(=O)N2CCCC[C@H]2C(=O)O[C@H]([C@H](C)C[C@@H]2CC[C@@H](O)[C@H](OC)C2)C[C@@H](O)[C@H](C)/C=C(\C)[C@@H](O)[C@@H](OC)C(=NOCc2cn(-c3cnc(N4CCN(c5ncc(C(=O)NCCOCCOCCOCCC(=O)NCCCCn6nc(-c7ccc8oc(N)nc8c7)c7c(N)ncnc76)cn5)CC4)nc3)nn2)[C@H](C)C[C@H](C)/C=C/C=C/C=C/1C [Example 193] | < 1 | 3.16 to 31.6 | > 1000 | – | –
3 | CO[C@H]1C[C@@H]2CC[C@@H](C)[C@@](O)(O2)C(=O)C(=O)N2CCCC[C@H]2C(=O)O[C@H]([C@H](C)C[C@@H]2CC[C@H](n3cc(CCCC(=O)NCCOCCOCCOCCC(=O)NCCOCCOCCC(=O)NCCCCn4nc(-c5ccc6oc(N)nc6c5)c5c(N)ncnc54)nn3)[C@H](OC)C2)C/C(=N/OCc2ccccc2)[C@H](C)/C=C(\C)[C@@H](O)[C@@H](OC)C(=O)[C@H](C)C[C@H](C)/C=C/C=C/C=C/1C [Example 173] | 10 to 1000 | > 1000 | > 1000 | – | –
4 | CO[C@H]1C[C@@H]2CC[C@@H](C)[C@@](O)(O2)C(=O)C(=O)N2CCCC[C@H]2C(=O)O[C@H]([C@H](C)C[C@@H]2CC[C@H](n3cc(CCCC(=O)NCCOCCOCCOCCC(=O)NCCOCCOCCOCCOCCC(=O)NCCCCn4nc(-c5cc6cc(O)ccc6[nH]5)c5c(N)ncnc54)nn3)[C@H](OC)C2)CC(=O)[C@H](C)/C=C(\C)[C@@H](O)[C@@H](OC)C(=O)[C@H](C)C[C@H](C)/C=C/C=C/C=C/1C [Example 133] | 1 to 10 | 3.16 to 31.6 | 31.6 to 1000 | – | –
5 | CO[C@H]1C[C@@H]2CC[C@@H](C)[C@@](O)(O2)C(=O)C(=O)N2CCCC[C@H]2C(=O)O[C@H]([C@H](C)C[C@@H]2CC[C@H](n3cc(CCCC(=O)NCCOCCOCCOCCC(=O)NCCOCCOCCC(=O)NCCCCn4nc(-c5ccc6oc(N)nc6c5)c5c(N)ncnc54)nn3)[C@H](OC)C2)CC(=O)[C@H](C)/C=C(\C)[C@@H](O)[C@@H](OC)C(=O)[C@H](C)C[C@H](C)/C=C/C=C/C=C/1C [Example 128] | 1 to 10 | 3.16 to 31.6 | 31.6 to 1000 | – | –
6 | CO[C@H]1C[C@@H]2CC[C@@H](C)[C@@](O)(O2)C(=O)C(=O)N2CCCC[C@H]2C(=O)O[C@H]([C@H](C)C[C@@H]2CC[C@H](n3cc(CCCC(=O)NCCOCCOCCOCCC(=O)NCCOCCOCCOCCC(=O)NCCCCn4nc(-c5cc6cc(O)ccc6[nH]5)c5c(N)ncnc54)nn3)[C@H](OC)C2)C[C@@H](OC)[C@H](C)/C=C(\C)[C@@H](O)[C@@H](OC)C(=O)[C@H](C)C[C@H](C)/C=C/C=C/C=C/1C [Example 179] | 1 to 10 | 31.6 to 1000 | > 1000 | – | –
7 | COC(=O)N[C@H]1C[C@@H]2CC[C@@H](C)[C@@](O)(O2)C(=O)C(=O)N2CCCC[C@H]2C(=O)O[C@H]([C@H](C)C[C@@H]2CC[C@@H](OCCCCc3cn(CCOCCOCCOCCOCCOCCOCCOCCOCCC(=O)NCCCCn4nc(-c5cc6cc(O)ccc6[nH]5)c5c(N)ncnc54)nn3)[C@H](OC)C2)CC(=O)[C@H](C)/C=C(\C)[C@@H](O)[C@@H](OC)C(=O)[C@H](C)C[C@H](C)/C=C/C=C/C=C/1C [Example 71] | 1 to 10 | 3.16 to 31.6 | > 1000 | – | –
8 | CO[C@H]1C[C@@H]2CC[C@@H](C)[C@@](O)(O2)C(=O)C(=O)N2CCCC[C@H]2C(=O)O[C@H]([C@H](C)C[C@@H]2CC[C@@H](O)[C@H](OC)C2)C[C@@H](O)[C@H](C)/C=C(\C)[C@@H](O)[C@@H](OC)C(=NOCc2cn(CCOCCOCCOCCOCCOCCOCCOCCOCCC(=O)NCCCCn3nc(-c4ccc5oc(N)nc5c4)c4c(N)ncnc43)nn2)[C@H](C)C[C@H](C)/C=C/C=C/C=C/1C [Example 50] | 1 to 10 | 3.16 to 31.6 | 31.6 to 1000 | – | –
9 | CO[C@H]1C[C@@H]2CC[C@@H](C)[C@@](O)(O2)C(=O)C(=O)N2CCCC[C@H]2C(=O)O[C@H]([C@H](C)C[C@@H]2CC[C@H](n3cc(COC(=O)NCCOCCOCCOCCC(=O)NCCOCCOCCC(=O)NCCCCn4nc(-c5cc6cc(O)ccc6[nH]5)c5c(N)ncnc54)nn3)[C@H](OC)C2)C/C(=N/OCc2ccccc2)[C@H](C)/C=C(\C)[C@@H](O)[C@@H](OC)C(=O)[C@H](C)C[C@H](C)/C=C/C=C/C=C/1C [Example 155] | > 1000 | > 1000 | > 1000 | – | –
10 | CO[C@H]1C[C@@H]2CC[C@@H](C)[C@@](O)(O2)C(=O)C(=O)N2CCCC[C@H]2C(=O)O[C@H]([C@H](C)C[C@@H]2CC[C@H](n3cc(-c4cnc(N5CCN(c6ncc(C(=O)NCCOCCOCCC(=O)NCCCCn7nc(-c8cc9cc(O)ccc9[nH]8)c8c(N)ncnc87)cn6)CC5)nc4)nn3)[C@H](OC)C2)CC(=O)[C@H](C)/C=C(\C)[C@@H](O)[C@@H](OC)C(=O)[C@H](C)C[C@H](C)/C=C/C=C/C=C/1C [Example 112] | < 1 | > 1000 | > 1000 | – | –
11 | CO[C@H]1C[C@@H]2CC[C@@H](C)[C@@](O)(O2)C(=O)C(=O)N2CCCC[C@H]2C(=O)O[C@H]([C@H](C)C[C@@H]2CC[C@@H](OCCC(C)(C)Cc3cn(CCOCCOCCOCCOCCOCCOCCC(=O)NCCCCn4nc(-c5ccc6oc(N)nc6c5)c5c(N)ncnc54)nn3)[C@H](OC)C2)CC(=O)[C@H](C)/C=C(\C)[C@@H](O)[C@@H](OC)C(=O)[C@H](C)C[C@H](C)/C=C/C=C/C=C/1C [Example 59] | < 1 | < 3.16 | 3.16 to 31.6 | – | –
12 | CO[C@H]1C[C@@H]2CC[C@@H](C)[C@@](O)(O2)C(=O)C(=O)N2CCCC[C@H]2C(=O)O[C@H]([C@H](C)C[C@@H]2CC[C@@H](OCCCCc3cn(CCOCCOCCOCCOCCOCCOCCC(=O)N(C)CCCCn4nc(-c5ccc6oc(N)nc6c5)c5c(N)ncnc54)nn3)[C@H](OC)C2)CC(=O)[C@H](C)/C=C(\C)[C@@H](O)[C@@H](OC)C(=O)[C@H](C)C[C@H](C)/C=C/C=C/C=C/1C [Example 84] | < 1 | < 3.16 | 3.16 to 31.6 | – | –
13 | CO[C@H]1C[C@@H]2CC[C@@H](C)[C@@](O)(O2)C(=O)C(=O)N2CCCC[C@H]2C(=O)O[C@H]([C@H](C)C[C@@H]2CC[C@@H](OCc3cccc(-c4cnc(N5CCN(C(=O)CCc6cn(CCOCCOCCC(=O)NCCCCn7nc(-c8ccc9oc(N)nc9c8)c8c(N)ncnc87)nn6)CC5)nc4)c3)[C@H](OC)C2)CC(=O)[C@H](C)/C=C(\C)[C@@H](O)[C@@H](OC)C(=O)[C@H](C)C[C@H](C)/C=C/C=C/C=C/1C [Example 47] | < 1 | < 3.16 | 3.16 to 31.6 | – | –
14 | CO[C@H]1C[C@@H]2CC[C@@H](C)[C@@](O)(O2)C(=O)C(=O)N2CCCC[C@H]2C(=O)O[C@H]([C@H](C)C[C@@H]2CC[C@@H](OCCCCc3cn(CCOCCOCCOCCNC(=O)CCCCC(=O)NCCCCn4nc(-c5ccc6oc(N)nc6c5)c5c(N)ncnc54)nn3)[C@H](OC)C2)CC(=O)[C@H](C)/C=C(\C)[C@@H](O)[C@@H](OC)C(=O)[C@H](C)C[C@H](C)/C=C/C=C/C=C/1C [Example 102] | < 1 | 3.16 to 31.6 | 3.16 to 31.6 | – | –
15 | CO[C@H]1C[C@@H]2CC[C@@H](C)[C@@](O)(O2)C(=O)C(=O)N2CCCC[C@H]2C(=O)O[C@H]([C@H](C)C[C@@H]2CC[C@H](n3cc(COC(=O)NCCOCCOCCOCCC(=O)NCCOCCOCCOCCC(=O)NCCCCn4nc(-c5cc6cc(O)ccc6[nH]5)c5c(N)ncnc54)nn3)[C@H](OC)C2)CC(=O)[C@H](C)/C=C(\C)[C@@H](O)[C@@H](OC)C(=O)[C@H](C)C[C@H](C)/C=C/C=C/C=C/1C [Example 123] | 1 to 10 | 3.16 to 31.6 | 31.6 to 1000 | – | –
16 | CO[C@H]1C[C@@H]2CC[C@@H](C)[C@@](O)(O2)C(=O)C(=O)N2CCCC[C@H]2C(=O)O[C@H]([C@H](C)C[C@@H]2CC[C@@H](OCCCCc3cn(CCOCCOCCOCCOCCOCCC(=O)NCCCCn4nc(-c5ccc6oc(N)nc6c5)c5c(N)ncnc54)nn3)[C@H](OC)C2)CC(=O)[C@H](C)/C=C(\C)[C@@H](O)[C@@H](OC)C(=O)[C@H](C)C[C@H](C)/C=C/C=C/C=C/1C [Example 2] | < 1 | – | – | 3.16 to 31.6 | 31.6 to 1000

Reference: US20230093861A1, “RAPAMYCIN ANALOGS AS MTOR INHIBITORS” (Revolution Medicines, Inc., priority 2017, published 2023)
